From US11110082B2, “Tyrosine kinase inhibitors” (Rigel Pharmaceuticals, Inc., priority 2016, dated 2021)

Target: T1, MerTK (Homo sapiens, UniProt Q12866)
T1 construct: Seed HUVECs (10K cells/well) in EBM-2 complete media; host or cells: HUVEC (primary human umbilical vein endothelial cells)
T1 sequence (Q12866 21-999): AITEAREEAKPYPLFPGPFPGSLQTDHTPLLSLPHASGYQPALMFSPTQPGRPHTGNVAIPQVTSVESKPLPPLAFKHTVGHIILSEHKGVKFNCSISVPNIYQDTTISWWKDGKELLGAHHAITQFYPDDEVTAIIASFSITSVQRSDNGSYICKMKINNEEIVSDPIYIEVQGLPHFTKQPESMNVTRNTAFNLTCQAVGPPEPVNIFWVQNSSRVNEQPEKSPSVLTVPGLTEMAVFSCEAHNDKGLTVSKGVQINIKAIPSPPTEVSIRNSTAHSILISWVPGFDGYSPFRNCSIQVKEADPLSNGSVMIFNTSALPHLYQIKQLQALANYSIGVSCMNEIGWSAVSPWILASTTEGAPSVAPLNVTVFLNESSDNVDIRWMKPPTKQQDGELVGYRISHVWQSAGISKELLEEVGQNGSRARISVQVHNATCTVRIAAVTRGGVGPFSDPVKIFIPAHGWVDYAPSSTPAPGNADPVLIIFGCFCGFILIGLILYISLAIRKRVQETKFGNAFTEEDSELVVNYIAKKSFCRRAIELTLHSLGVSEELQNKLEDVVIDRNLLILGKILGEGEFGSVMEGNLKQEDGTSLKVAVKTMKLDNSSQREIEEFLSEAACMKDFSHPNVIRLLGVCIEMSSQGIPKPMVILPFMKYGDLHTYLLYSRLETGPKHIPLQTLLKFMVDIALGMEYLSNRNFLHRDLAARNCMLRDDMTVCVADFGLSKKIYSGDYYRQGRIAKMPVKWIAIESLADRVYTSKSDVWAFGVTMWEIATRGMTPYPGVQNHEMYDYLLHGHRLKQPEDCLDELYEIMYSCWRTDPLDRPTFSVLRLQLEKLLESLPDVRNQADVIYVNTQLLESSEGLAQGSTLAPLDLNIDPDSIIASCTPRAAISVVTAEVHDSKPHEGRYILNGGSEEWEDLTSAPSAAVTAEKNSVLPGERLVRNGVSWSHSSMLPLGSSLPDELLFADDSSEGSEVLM
Assay: PAKT HTRF-HUVEC assay (pAkt Ser473 HTRF after anti-human MerTK-XL stimulation)
Assay type: cell-based
Conditions: HUVEC cells, 1 hour compound, stimulated with anti-human MerTK-XL 1 ug/mL for 10 minutes, read-out: inhibition of MerTK
Method: Example 4: PAKT HTRF-HUVEC Assay Phospho Akt (Ser473) Assay kit-10,000 tests (Cisbio US, 64[…]) HUVEC cells (Lonza, CC-2519) Anti-human MerTK antibody (Clone 125518) (R&D Systems, MAB8912) Method Seed HUVECs (10K cells/well) in EBM-2 complete media (EBM-2 basal medium plus EGM-2 BulletKit supplements) overnight at 37° C., 5% CO2 in Costar 96-well white clear-bottom plates. Remove culture media and starve cells for 3-4 hours in 50 μL/well EBM-2 basal medium. Perform serial dilution of compounds in DMSO from 2.5 mM in 4-fold dilutions, and then dilute 1:125 in EBM-2 basal media. Mix 50 μL/well 2x compounds with 50 μL/well HUVECs in duplicate in Costar 96-well white clear-bottom plates. Incubate plates for 1 hour at 37° C., 5% CO2. Cross-link anti-human MerTK antibody to Biotin-SP-conjugated anti-mouse IgG antibody (1:1) to give final concentrations of 5 ug/mL of anti-human MerTK-XL. Stimulate HUVECs with 25 μL/well 5x anti-human MerTK-XL to give final concentrations of 1 ug/mL for 10 minutes at 37° C., 5% CO2. Completely remove media and lyse HUVECs with 40 uL/WELL per well of Cisbio HTRF 1× lysis buffer. Performed pAkt(Ser473) HTRF assay in ProxiPlate-384 Plus, white 384-shallow well microplate according to the vendor protocol and read plates with a SpectralMax Paradigm plate reader. Enter the HTRF values into Athena (Rigel) for curve fitting, EC50 calculation, and database storage.

Row | SMILES | EC50 [nM]
1 | CCC(F)(F)CNc1ncc2c3ccc(CN4CCOCC4)cc3c(=O)n([C@H]3CC[C@H](O)CC3)c2n1 [Compound 1, trans-3-((2,2-Difluorobutyl)amino)-5-(4-hydroxycyclohexyl)-8-(morpholinomethyl)pyrimido [4,5-c]isoquinolin-6(5H)-one] | 247
2 | CCCCNc1ncc2c3ccc(N4CCN5CCC[C@@H]5C4)cc3c(=O)n([C@H]3CC[C@H](O)CC3)c2n1 [Compound 76, trans-3-(Butylamino)-8-((R)-hexahydropyrrolo[1,2-a]pyrazin-2(1H)-yl)-5-(4-hydroxycyclohexyl)pyrimido [4,5-c]isoquinolin-6(5H)-one] | 11.5
3 | CCCCNc1ncc2c3ccc(N4CCn5ncnc5C4)cc3c(=O)n([C@H]3CC[C@H](O)CC3)c2n1 [Compound 80, trans-3-(Butylamino)-8-(5,6-dihydro-[1,2,4]triazolo[1,5-a]pyrazin-7(8H)-yl)-5-(4-hydroxycyclohexyl)pyrimido [4,5-c]isoquinolin-6(5H)-one] | 34.5
4 | C[C@]1(O)CC[C@H](n2c(=O)c3cc(CN4CCN(C5COC5)CC4)ccc3c3cnc(NCC4CC4)nc32)CC1 [Compound 36, trans-3-((Cyclopropylmethyl)amino)-5-(4-hydroxy-4-methylcyclohexyl)-8-((4-(oxetan-3-yl)piperazin-1-yl)methyl)pyrimido[4,5-c]isoquinolin-6(5H)-one] | 16.8
5 | CCCCNc1ncc2c3ccc(N4CCN(C)CC4)cc3c(=O)n([C@H]3CC[C@H](O)CC3)c2n1 [Compound 61, trans-3-(Butylamino)-5-(4-hydroxycyclohexyl)-8-(4-methylpiperazin-1-yl)pyrimido[4,5-c]isoquinolin-6(5H)-one] | 23.1
6 | CCCCNc1ncc2c3ccc(N4CCN5CCC4CC5)cc3c(=O)n(C3CCC(=O)CC3)c2n1 [Compound 82, 8-(1,4-Diazabicyclo[3.2.2]nonan-4-yl)-3-(butylamino)-5-(4-oxocyclohexyl)pyrimido[4,5-c]isoquinolin-6(5H)-one] | 216
7 | CCCCNc1ncc2c3ccc(N4C[C@@H](C)N(C)C[C@@H]4C)cc3c(=O)n([C@H]3CC[C@H](O)CC3)c2n1 [Compound 78, trans-3-(Butylamino)-5-(4-hydroxycyclohexyl)-8-((2S,5R)-2,4,5-trimethylpiperazin-1-yl)pyrimido[4,5-c]isoquinolin-6(5H)-one] | 9
8 | CCC(F)(F)CNc1ncc2c3ccc(CN4CCN(C)CC4)cc3c(=O)n([C@H]3CC[C@H](O)CC3)c2n1 [Compound 24, trans-3-((2,2-Difluorobutyl)amino)-5-(4-hydroxycyclohexyl)-8-((4-methylpiperazin-1-yl)methyl)pyrimido[4,5-c]isoquinolin-6(5H)-one] | 221
9 | CCCCNc1ncc2c3ccc(N4CCN(C)CC4)cc3c(=O)n(CC3CCC(N)CC3)c2n1 (stereo not drawn) [Compound 65, 5-((4-Aminocyclohexyl)methyl)-3-(butylamino)-8-(4-methylpiperazin-1-yl)pyrimido[4,5-c]isoquinolin-6(5H)-one] | 78.3
10 | CCCCNc1ncc2c3ccc(N4CCN(C(C)C)CC4)cc3c(=O)n([C@H]3CC[C@H](O)CC3)c2n1 [Compound 69, trans-3-(Butylamino)-5-(4-hydroxycyclohexyl)-8-(4-isopropylpiperazin-1-yl)pyrimido[4,5-c]isoquinolin-6(5H)-one] | 20.4

Results, then the compound that gave them:

Row | EC50 [nM] | SMILES
11 | 28.3 | C[C@]1(O)CC[C@H](n2c(=O)c3cc(CN4CCN(c5ccncc5)CC4)ccc3c3cnc(NCC4CC4)nc32)CC1 [Compound 224, trans-3-((Cyclopropylmethyl)amino)-5-(4-hydroxy-4-methylcyclohexyl)-8-((4-(pyridin-4-yl)piperazin-1-yl)methyl)pyrimido[4,5-c]isoquinolin-6(5H)-one]
12 | 36.4 | C[C@@H]1CN(Cc2ccc3c(c2)c(=O)n([C@H]2CC[C@H](O)CC2)c2nc(NCC4CC4)ncc32)CCN1C [Compound 175]
13 | 36.3 | O=c1c2cc(CN3CCSCC3)ccc2c2cnc(NCC3CC3)nc2n1[C@H]1CC[C@H](O)CC1 [Compound 170]
14 | 13.1 | CCCCNc1ncc2c3ccc(N4CCN(C)[C@H](C)C4)cc3c(=O)n([C@H]3CC[C@H](O)CC3)c2n1 [Compound 90, trans-3-(Butylamino)-8-((R)-3,4-dimethylpiperazin-1-yl)-5-(4-hydroxycyclohexyl)pyrimido [4,5-c]isoquinolin-6(5H)-one]
15 | 187 | CCCCNc1ncc2c3ccc(CN4CCN(C)CC4)cc3c(=O)n([C@H]3CC[C@H](C(=O)NCC4CC4)CC3)c2n1 [Compound 141, trans-4-(3-(Butylamino)-8-((4-methylpiperazin-1-yl)methyl)-6-oxopyrimido[4,5-c]isoquinolin-5(6H)-yl)-N-(cyclopropylmethyl)cyclohexane-1-carboxamide]
16 | 1910 | CCCCNc1ncc2c3ccc(CN4CCN(C)CC4)cc3c(=O)n([C@H]3CC[C@H](NC(=O)OC(C)(C)C)C3)c2n1 [Compound 231, tert-butyl ((1S,3S)-3-(3-(butylamino)-8-((4-methylpiperazin-1-yl)methyl)-6-oxopyrimido[4,5-c]isoquinolin-5(6H)-yl)cyclopentyl)carbamate]
17 | 170 | O=c1c2cc(N3CCNCC3)ccc2c2cnc(NCC3CC3)nc2n1[C@H]1CC[C@H](O)CC1 [Compound 108, trans-3-((Cyclopropylmethyl)amino)-5-(4-hydroxycyclohexyl)-8-(piperazin-1-yl)pyrimido[4,5-c]isoquinolin-6(5H)-one]
18 | 5140 | CN1CCN(Cc2ccc3c(c2)c(=O)n([C@H]2CC[C@H](NC(=O)OC(C)(C)C)CC2)c2nc(NCC4CC4)ncc32)CC1 [Compound 184, trans-tert-Butyl (4-(3-((cyclopropylmethyl)amino)-8-((4-methylpiperazin-1-yl)methyl)-6-oxopyrimido[4,5-c]isoquinolin-5(6H)-yl)cyclohexyl)carbamate]
19 | 19.9 | CCCCNc1ncc2c3ccc(N4CCN(C)CC4)cc3c(=O)n(C3CCC(C)(O)CC3)c2n1 (stereo not drawn) [Compound 86, trans-3-(Butylamino)-5-(4-hydroxy-4-methylcyclohexyl)-8-(4-methylpiperazin-1-yl)pyrimido[4,5-c]isoquinolin-6(5H)-one]
20 | 54.6 | CCCCNc1ncc2c3ccc(CN4CCN(C)CC4)cc3c(=O)n([C@H]3CC[C@H](C(N)=O)CC3)c2n1 [Compound 131, trans-4-(3-(Butylamino)-8-((4-methylpiperazin-1-yl)methyl)-6-oxopyrimido[4,5-c]isoquinolin-5(6H)-yl)cyclohexane-1-carboxamide]
21 | 140 | CN1CCN(Cc2ccc3c(c2)c(=O)n([C@H]2CCC[C@H](O)CC2)c2nc(NCC4CC4)ncc32)CC1 [Compound 230, 3-((cyclopropylmethyl)amino)-5-((1S,4S)-4-hydroxycycloheptyl)-8-((4-methylpiperazin-1-yl)methyl)pyrimido[4,5-c]isoquinolin-6(5H)-one]
22 | 309 | O=c1c2cc(CN3CCNCC3)ccc2c2cnc(NCC3CC3)nc2n1[C@H]1CC[C@H](O)CC1 [Compound 171]
23 | 25.9 | CCOC(=O)C1CCN(Cc2ccc3c(c2)c(=O)n(C2CCC(O)CC2)c2nc(NCC4CC4)ncc32)CC1 (stereo not drawn) [Compound 161]
24 | 3920 | CN1CCN(c2ccc3c(c2)c(=O)n([C@H]2CC[C@H](O)CC2)c2nc(NCCCC(F)(F)F)ncc32)CC1 [Compound 95, trans-5-(4-Hydroxycyclohexyl)-8-(4-methylpiperazin-1-yl)-3-((4,4,4-trifluorobutyl)amino)pyrimido [4,5-c]isoquinolin-6(5H)-one]
